From ChEMBL document CHEMBL1201862, “PubChem BioAssay data set” (2004) come the findings set out here.

One may read the IC50 as the concentration needed to halve the response being measured. One may read the AC50 as the midpoint of the concentration-response curve, whichever way the signal moves. As usually defined, the IC90 is the point of the concentration-response curve where the effect stands at 90%. The EC50 is the concentration giving half of the maximal effect.

A short description of assay [1]: IC50 of Artemis nuclease activity blockers – biochemical, fluorescence intensity, dose response (AID 720701).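 Further: Artemis endonuclease enzyme.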 The class given is functional.
The next assay has as its target Cytochrome P450 3A4 (Homo sapiens, UniProt P08684).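 Further: CYP3A4 tested as one member of a cytochrome P450 panel screen.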
The next assay addresses T1, Cytochrome P450 1A2 (Homo sapiens, UniProt P05177).
T1 sequence (P05177 whole entry): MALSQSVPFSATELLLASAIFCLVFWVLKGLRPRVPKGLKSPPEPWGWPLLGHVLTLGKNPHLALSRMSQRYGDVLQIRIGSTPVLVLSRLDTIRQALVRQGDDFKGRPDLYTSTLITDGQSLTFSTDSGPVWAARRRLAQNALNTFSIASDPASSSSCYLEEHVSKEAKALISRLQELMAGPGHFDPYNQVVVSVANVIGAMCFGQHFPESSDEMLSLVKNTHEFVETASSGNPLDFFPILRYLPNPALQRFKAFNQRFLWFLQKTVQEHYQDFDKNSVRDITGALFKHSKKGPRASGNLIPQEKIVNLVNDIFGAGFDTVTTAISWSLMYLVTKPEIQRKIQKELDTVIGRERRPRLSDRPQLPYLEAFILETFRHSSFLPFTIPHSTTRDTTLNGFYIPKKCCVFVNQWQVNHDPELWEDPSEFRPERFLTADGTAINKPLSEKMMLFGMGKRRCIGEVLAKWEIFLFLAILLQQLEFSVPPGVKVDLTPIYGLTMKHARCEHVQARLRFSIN

A further assay has as its target T2, Leucine aminopeptidase (Plasmodium falciparum 3D7, UniProt Q8IL11).
T2 sequence (Q8IL11 whole entry): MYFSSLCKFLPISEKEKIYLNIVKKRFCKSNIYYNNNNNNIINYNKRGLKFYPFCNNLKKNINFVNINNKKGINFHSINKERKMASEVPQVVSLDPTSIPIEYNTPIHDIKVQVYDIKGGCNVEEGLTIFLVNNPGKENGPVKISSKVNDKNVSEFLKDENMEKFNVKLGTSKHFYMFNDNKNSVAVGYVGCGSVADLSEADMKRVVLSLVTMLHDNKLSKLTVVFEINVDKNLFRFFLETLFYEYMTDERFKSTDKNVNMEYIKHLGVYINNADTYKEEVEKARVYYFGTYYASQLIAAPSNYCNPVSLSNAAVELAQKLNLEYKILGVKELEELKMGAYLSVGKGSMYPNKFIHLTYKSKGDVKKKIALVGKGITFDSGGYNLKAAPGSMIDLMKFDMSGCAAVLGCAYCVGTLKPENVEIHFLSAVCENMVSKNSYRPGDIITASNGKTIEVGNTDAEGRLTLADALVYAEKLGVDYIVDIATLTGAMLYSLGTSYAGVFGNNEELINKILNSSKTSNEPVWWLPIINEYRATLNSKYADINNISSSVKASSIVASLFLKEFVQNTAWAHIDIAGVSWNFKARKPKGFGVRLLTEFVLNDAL
Put plainly: P. falciparum M17LAP inhibitors, primary screen, biochemical, fluorogenic H-Leu-NHMec substrate, 1536-well (AID 1619). The class given is functional.

Assay [2] can be described thus: OVCAR-3 cell viability loss – plate reader, dry powder samples, PAX8 inhibitor project, dose response (AID 743044). In kind it is functional, cell-based.
For a further assay, the target named is Paired box protein Pax-8 (Homo sapiens, UniProt Q06710). The assay is described as follows: PAX8 transcriptional activity inhibition in RMG-I – RMG-I cells, luciferase, cherry-pick, dose response (AID 687027).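 Further: luciferase reporter driven by Pax8 target thyroperoxidase promoter measured by SteadyGlo luminescence.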 The class given is functional, cell-based.
Paired box protein Pax-8, sequence (Q06710 whole entry): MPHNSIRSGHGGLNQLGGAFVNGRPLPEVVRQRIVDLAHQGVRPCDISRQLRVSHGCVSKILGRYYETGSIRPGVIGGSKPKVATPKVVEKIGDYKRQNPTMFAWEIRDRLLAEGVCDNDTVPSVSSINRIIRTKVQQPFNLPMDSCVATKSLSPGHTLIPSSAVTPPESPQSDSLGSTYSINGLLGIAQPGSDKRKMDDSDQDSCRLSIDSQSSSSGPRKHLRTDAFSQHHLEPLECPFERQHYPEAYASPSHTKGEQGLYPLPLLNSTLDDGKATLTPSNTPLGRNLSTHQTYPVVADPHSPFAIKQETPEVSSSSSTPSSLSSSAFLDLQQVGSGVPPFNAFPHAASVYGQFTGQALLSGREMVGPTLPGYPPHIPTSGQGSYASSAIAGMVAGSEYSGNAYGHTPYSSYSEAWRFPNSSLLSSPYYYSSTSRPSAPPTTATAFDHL
Assay [3] in a line: OVCAR8 cell viability loss – plate reader, dry powder samples, PAX8 project, dose response (AID 743197). To be noted: OVCAR-8. The class given is functional, cell-based.
Assay [4] is described as follows: reduced cellular PGC1a acetyl-lysine signal – cell-based, cherry-picked samples, dose response (AID 720514).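 Further: potency may reflect raised or lowered acetylation signal.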 In kind it is functional.
A short description of assay [5]: toxicity toward immortalized ovarian surface epithelium – cell-based, plate reader, dry powder samples, cytotoxicity control for PAX8 inhibitor project, dose response (AID 743045). In kind it is functional.
Assay [6] can be described thus: general cell-killing toxicity readout – plate reader, dry powder samples, cytotoxicity control for PAX8 inhibitor project, dose response (AID 743021). In kind it is functional, cell-based.
A short description of assay [7]: viability loss in A549 lung cells – cell-based, 24 h, CellTiter-Glo luminescence, cherry-picks, cytotoxicity control, dose response (AID 1053115). The class given is functional. To be noted: A549, 24 h. In general terms: ATP-based viability assays read luminescence as a measure of living cells.
A short description of assay [8]: inhibitors of non-replicating M. tuberculosis, dose response, luciferase, dry powder (AID 651620). The settings on record: Mycobacterium tuberculosis. The class given is functional.
Assay [9] is described as follows: inhibitors of non-replicating M. tuberculosis, dose response, luciferase, dry powder (AID 651619). The class given is functional. To be noted: Mycobacterium tuberculosis.
Assay [10] is described as follows: HepG2 hepatoma cell viability loss – plate reader, dry powder, cytotoxicity control, dose response (AID 651947). The class given is functional, cell-based.
Assay [11] in a line: Potency on glucagon-like peptide 1 release, dose-response in NCI-H716 cell line, half maximal inhibitory concentration (AID 1117344). In kind it is functional, cell-based.
A short description of assay [12]: glucagon-like peptide-1 release potency in STC-1, concentration-response, half-maximal inhibitory concentration in the STC-1 line (AID 1117345). The class given is functional, cell-based.
A short description of assay [13]: viability loss in MITF-independent A375 cells – cell-based, CellTiter-Glo luminescence, dry powder, set 2, counter-screen for MITF inhibitor project, dose response (AID 624489).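 Further: actives are compounds lowering A375 viability meaning general cytotoxicity.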 The class given is functional. To be noted: A-375.
Assay [14] can be described thus: cytotoxicity in MITF-independent A375 cells – cell-based, CellTiter-Glo luminescence, dry powder, set 4, counter-screen for MITF inhibitor project, dose response (AID 624364).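 Further: A375 melanoma cells are MITF independent so this is a counter screen.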 The class given is functional. To be noted: A-375.
The nature of assay [15]: cytotoxicity toward Colo320 cells – cell-based, CellTiter-Glo luminescence, IC50, dose response (AID 1117334). In kind it is functional. The settings on record: COLO 320.
Assay [16] in a line: SNU-C1 cell viability reduction, dose response, CellTiter-Glo luminescence (AID 1117323). The class given is functional, cell-based.
Assay [17] can be described thus: HCT116 cell viability decrease, GSK3B pretreatment – CellTiter-Glo, IC50, dose response (AID 1117339). In kind it is functional. To be noted: HCT-116.
A short description of assay [18]: cytotoxicity toward HT-29 cells – cell-based, CellTiter-Glo luminescence, IC50, dose response (AID 1117330). In kind it is functional.
Assay [19] can be described thus: CellTiter-Glo luminescence survival assay, SW480 colon tumor line, concentration-response curve, half-maximal inhibitory concentration (AID 1117338). In kind it is functional.
Assay [20] can be described thus: RKO cell viability reduction, dose response, CellTiter-Glo luminescence (AID 1117322). In kind it is functional.
Assay [21] in a line: rise of 2N DNA cells, HeLa – IC50, dose response (AID 1117349). In kind it is functional, cell-based.
Assay [22] can be described thus: rise of 4N DNA cells, HeLa – IC50, dose response (AID 1117351). In kind it is functional, cell-based.
A short description of assay [23]: Reduced DLD-1 viability, concentration-response, CellTiter-Glo luminescence (AID 1117352). The class given is functional.
Assay [24] can be described thus: cytotoxicity toward HCT116 cells – cell-based, CellTiter-Glo luminescence, IC50, dose response (AID 1117332). In kind it is functional. The settings on record: HCT-116.
Assay [25] is described as follows: IGROV1 cell killing – plate reader, dry powder samples, PAX8 inhibitor project, dose response (AID 743043). The settings on record: IGROV-1. In kind it is functional, cell-based.
The nature of assay [26]: Dd2 parasite growth inhibition in erythrocytes – SYBR Green, dry powder samples, set 9, dose response (AID 1159568). In kind it is functional, cell-based.
In assay [27] the target is Metabotropic glutamate receptor 7 (Homo sapiens, UniProt Q14831). Put plainly: potentiation of glutamate EC20 at mGlu7 – cell-based, calcium mobilization, Galpha15, dose response (AID 743384). In kind it is functional. For orientation: A change in cytosolic calcium serves as a functional read-out for many receptors and channels.
Metabotropic glutamate receptor 7, sequence (Q14831 whole entry): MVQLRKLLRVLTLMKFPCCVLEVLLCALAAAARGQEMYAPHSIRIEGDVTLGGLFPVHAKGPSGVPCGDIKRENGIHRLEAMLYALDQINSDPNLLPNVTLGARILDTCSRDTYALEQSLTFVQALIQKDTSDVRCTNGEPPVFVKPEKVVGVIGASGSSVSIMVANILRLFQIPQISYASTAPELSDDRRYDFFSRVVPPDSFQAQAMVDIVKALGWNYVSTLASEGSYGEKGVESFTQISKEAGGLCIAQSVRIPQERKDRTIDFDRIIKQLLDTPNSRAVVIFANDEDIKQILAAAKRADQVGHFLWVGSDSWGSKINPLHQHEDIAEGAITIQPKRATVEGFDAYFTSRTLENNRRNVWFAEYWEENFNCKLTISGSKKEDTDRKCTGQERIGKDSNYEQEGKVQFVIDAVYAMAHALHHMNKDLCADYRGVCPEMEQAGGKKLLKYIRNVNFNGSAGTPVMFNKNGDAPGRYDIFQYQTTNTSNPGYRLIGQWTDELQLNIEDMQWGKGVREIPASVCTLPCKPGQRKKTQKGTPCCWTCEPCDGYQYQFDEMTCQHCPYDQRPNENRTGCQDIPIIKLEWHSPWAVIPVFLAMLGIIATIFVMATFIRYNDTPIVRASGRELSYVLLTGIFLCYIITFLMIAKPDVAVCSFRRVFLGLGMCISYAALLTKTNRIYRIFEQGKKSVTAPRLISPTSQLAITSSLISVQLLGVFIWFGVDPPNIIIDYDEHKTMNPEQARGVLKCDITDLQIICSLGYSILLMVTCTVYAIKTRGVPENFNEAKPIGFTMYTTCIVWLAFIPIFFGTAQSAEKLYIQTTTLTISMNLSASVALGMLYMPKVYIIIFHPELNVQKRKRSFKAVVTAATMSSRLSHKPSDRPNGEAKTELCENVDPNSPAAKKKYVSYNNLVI
Assay [28] is described as follows: HIV-1 Vif–A3G interaction blockers – biochemical, TR-FRET, GST-Vif 1-94, biotin-A3G peptide, dose response retest, primary screen (AID 1117319).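 Further: TR-FRET signal of purified GST-Vif binding a biotinylated A3G peptide; inhibitors lower the FRET signal by blocking Vif and A3G binding.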 The class given is functional.
The next assay can be described thus: cells. The class given is functional, cell-based. To be noted: INS-1E.
Assay [29] is described as follows: IC50 of insulin release inhibition, rat insulinoma INS-1E line, 5 mM glucose, cell-based (AID 1117331). In kind it is functional.

Where a name gives a salt, the structure may show the parent alone. The source made the active and inactive calls. Where only a bound is given, the exact number is not on record here.

Cytochrome P450 3A4, sequence (P08684 whole entry): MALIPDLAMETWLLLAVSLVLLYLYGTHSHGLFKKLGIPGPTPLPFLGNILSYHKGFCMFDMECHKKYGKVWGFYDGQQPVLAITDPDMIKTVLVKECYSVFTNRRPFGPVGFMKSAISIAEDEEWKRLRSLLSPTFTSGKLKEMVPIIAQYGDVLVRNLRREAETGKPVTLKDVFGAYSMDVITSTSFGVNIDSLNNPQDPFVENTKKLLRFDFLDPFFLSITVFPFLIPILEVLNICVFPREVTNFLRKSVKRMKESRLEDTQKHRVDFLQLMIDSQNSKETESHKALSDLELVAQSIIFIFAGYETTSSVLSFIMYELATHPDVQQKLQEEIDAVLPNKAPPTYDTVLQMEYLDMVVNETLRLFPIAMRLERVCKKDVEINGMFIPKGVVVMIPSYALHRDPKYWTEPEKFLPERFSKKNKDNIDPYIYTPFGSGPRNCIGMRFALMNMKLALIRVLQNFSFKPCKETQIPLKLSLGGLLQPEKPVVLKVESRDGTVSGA

With `Cc1sc(NC(=O)C2C3CCC(O3)C2C(=O)O)c(C(=O)OC(C)C)c1-c1ccc(Cl)cc1` (stereo not given), the IC50 was > 20 µM (inactive) in assay [1] and 10.1 µM (active) at Leucine aminopeptidase. For the same compound, the AC50 was 15.8 µM (inconclusive) on Cytochrome P450 3A4 and 22.4 µM (inconclusive) on Cytochrome P450 1A2.
As to `Fc1cccc(CN2C[C@@H]3N[C@H](C2)[C@@H]3c2ccc(-c3cccc(F)c3)cc2)c1`, the AC50 in assay [2] was 22.1 µM (active); at Paired box protein Pax-8 it was 23.4 µM (active); in assay [3], 27 µM (active); in assay [4], 4.43 µM (active); in assay [5] it was 27.6 µM (active); in assay [6], 19.5 µM (active).
On to `C[C@@H]1CCCCO[C@@H](CN(C)S(=O)(=O)c2ccc(Cl)cc2)[C@@H](C)CN([C@@H](C)CO)C(=O)c2cc(NC(=O)Nc3ccc(F)cc3)ccc2O1`, for which the half-maximal activity concentration (AC50) in assay [7] is 51.4 µM (active).
On to `Fc1ccc(Cn2cc(CSc3nnc(-c4ccc(F)cc4)o3)nn2)cc1`, for which the concentration for an effect of 90% (IC90) in assay [8] and in assay [9] was 1 µM (active) each time. Moreover, the half-maximal activity concentration (AC50) in [10] was 30.8 µM (active).
For the compound `Cc1cc(OCCOCC[N+](C)(C)Cc2ccccc2)ccc1C(C)(C)CC(C)(C)C`, the IC50 was 12 µM (inactive) in assay [11] and > 40 µM (inactive) in assay [12].
Turning to `COc1ccc(C(=O)NC2=C(c3ccc(OC)cc3)C(=O)c3ccccc3C2=O)cc1`, the AC50 in assay [13] was 13.3 µM (active); in assay [14], 20.1 µM (active).
Take `CCCCC(CC)CNC(=N)NC(=N)NCCCCCCNC(=N)NC(=N)NCC(CC)CCCC` (stereo not given) [ALEXIDINE DIHYDROCHLORIDE]: the concentration for half-maximal inhibition (IC50) in assay [15] was 0.0041 µM (active); in assay [16] it was 0.0941 µM (active); in assay [17], 0.396 µM (active); in assay [18] it was 0.0302 µM (active); in [19] it was 0.333 µM (active); in assay [20] it was 0.223 µM (active). Further, the IC50 in [21] is > 10 µM (inactive); in assay [22], > 10 µM (inactive); in [23], 0.0197 µM (active); in assay [24] it was 0.71 µM (active).
As for `C[C@@H]1CN([C@@H](C)CO)C(=O)Cc2cc(NC(=O)C3CCCCC3)ccc2O[C@H]1CN(C)Cc1ccc(Cl)c(Cl)c1`, the AC50 was 28.6 µM (active) in assay [25], 5.39 µM (active) on Paired box protein Pax-8 and 2.76 µM (active) in assay [26].
In the case of `CC(=O)Nc1ccc(SCC(=O)c2cc(C)n(-c3nc(C)cs3)c2C)cc1`, in assay [27], the EC50 was 10 µM (active).
Take `Cc1cccc(N2CCN(CC(=O)NCC3CCCCC3)CC2)c1C`: the IC50 in assay [28] was > 100 µM (active).
For `CC(C)[C@H]1CC[C@H](C(=O)N[C@H](Cc2ccccc2)C(=O)O)CC1` [NATEGLINIDE], the IC50 was > 33.3 µM (inactive) in “cells” and 7.07 µM (inactive) in assay [29].
